Test [1] concerns the target KasQ (Streptomyces kasugaensis, UniProt A0A0K1H2R6). The experiment in a line: Isothermal titration calorimetry (ITC) of KasQ wild type versus substrates.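 On all read-outs here: titration of 1 mM substrate into 0.1 mM KasQ, 18 injections spaced 120 s, data fitted to a single-site binding model.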 The class given is binding. To be noted: for ∆G / ∆H / ∆S / Kd / n: KasQ wild type; for Kd / n: 25 °C, 50 mM HEPES pH 8.0, 100 mM NaCl; for n: ITC binding stoichiometry. (In general: In ITC the heat of successive injections is recorded.)
Procedure: (§1) ITC analyses were carried out at 25 °C using an ITC200 microcalorimeter (MicroCal Inc., Northampton, MA, USA). […] The titration experiment contains 18 injections (2 μL for a duration of 4 s) and each injection was separated by 120 s. The distilled water was filled in the reference cell throughout all titrations. The cell stirring speed was 1000 rpm. The collected raw data were processed in Origin 7.0 (provided by MicroCal) by a non-linear least square method to a single-site binding model.

Test [2] has as its target KasH (Streptomyces kasugaensis, UniProt A0A0K1H2T0). The experiment in a line: ITC of KasH versus ligands.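 On all read-outs here: isothermal titration calorimetry at 25 °C, 0.1 mM KasH in the cell titrated with 1 mM ligand over 18 injections, data fit with a one-site binding model.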 To be noted: KasH; for n: ITC binding stoichiometry; for n / Kd: 50 mM MOPS pH 7.5, 100 mM NaCl; for ∆G / ∆H / ∆S / Kd: ITC.
Procedure: as §1

Structures are written as SMILES. Read-outs that look alike come from different tables or passages of the source.

Data on 28 molecules can be found in paper PMC8869731, “KasQ an Epimerase Primes the Biosynthesis of Aminoglycoside Antibiotic Kasugamycin and KasF/H Acetyltransferases Inactivate Its Activity” (Biomedicines, 2022).

KasQ, sequence (A0A0K1H2R6 entry or part of it): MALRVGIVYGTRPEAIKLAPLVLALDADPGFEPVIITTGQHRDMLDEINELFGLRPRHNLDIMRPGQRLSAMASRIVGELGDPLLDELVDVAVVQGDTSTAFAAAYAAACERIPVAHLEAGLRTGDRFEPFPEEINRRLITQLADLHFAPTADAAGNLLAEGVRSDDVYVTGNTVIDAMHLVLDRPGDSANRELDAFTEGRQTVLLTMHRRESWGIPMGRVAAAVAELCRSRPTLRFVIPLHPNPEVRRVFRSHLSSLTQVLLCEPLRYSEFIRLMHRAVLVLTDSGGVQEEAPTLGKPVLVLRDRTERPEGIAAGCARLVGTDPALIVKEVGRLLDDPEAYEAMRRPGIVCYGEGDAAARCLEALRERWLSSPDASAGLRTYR
KasH, sequence (A0A0K1H2T0 entry or part of it): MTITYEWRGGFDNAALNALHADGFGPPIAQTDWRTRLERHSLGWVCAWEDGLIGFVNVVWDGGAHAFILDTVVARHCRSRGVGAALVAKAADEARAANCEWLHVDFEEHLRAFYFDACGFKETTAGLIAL

As a reminder, the Kd is the constant that tells how readily two partners part at equilibrium. Regarding `Nc1nc2c(ncn2[C@@H]2O[C@H](COP(=O)(O)OP(=O)(O)O)[C@@H](O)[C@H]2O)c(=O)[nH]1` [GDP], in test [1] (ITC), the “∆G” value is listed as “NBD”; the “∆H” value is given as “NBD”; the “∆S” value was “NBD”; the Kd entry was “nor AMP, ADP, ATP, GMP, GDP, or GTP shows detectable binding affinity and NBD”.

In the case of `O=C(O)[C@H]1OC(O)[C@H](O)[C@@H](O)[C@H]1O` (stereo partly drawn) [GalA], in test [1] (ITC), the “∆G” value is “NBD”, the “∆H” value is recorded as “NBD”, the “∆S” value is “NBD” and the Kd result is recorded as “NBD”.

Turning to `Nc1nc2c(ncn2[C@@H]2O[C@H](COP(=O)(O)OP(=O)(O)O[C@H]3O[C@H](CO)[C@@H](O)[C@H](O)[C@@H]3O)[C@@H](O)[C@H]2O)c(=O)[nH]1` [GDP-Man], in test [1] (ITC), the “∆G” value was “NBD”, the “∆H” value is recorded as “NBD”, the “∆S” value was “NBD” and the Kd result is “NBD”.

The molecule `O=c1ccn([C@@H]2O[C@H](COP(=O)(O)OP(=O)(O)OP(=O)(O)O)[C@@H](O)[C@H]2O)c(=O)[nH]1` [UTP] registered a n in test [1] of 1.0 ± 0.0. Also, in test [1] (ITC), the “∆G” value is -5.645 ± 1.340 kcal/mol, the “∆H” value is -9.104 ± 1.340 kcal/mol and the “∆S” value is recorded as −11.6 cal mol^−1 K^−1. Besides, in test [1] (ITC, read-out: Kd), the equilibrium dissociation constant (Kd) turned out to be 71.4 ± 5.7 µM.

On to `Cc1cn([C@H]2C[C@H](O)[C@@H](COP(=O)(O)OP(=O)(O)OP(=O)(O)O)O2)c(=O)[nH]c1=O` [TTP], for which the n in test [1] is recorded as 1.1 ± 0.1. Moreover, in test [1] (ITC), the “∆G” value was -5.128 ± 1.221 kcal/mol, the “∆H” value is -7.612 ± 1.221 kcal/mol and the “∆S” value is −8.33 cal mol^−1 K^−1. In test [1] (ITC, read-out: Kd), the dissociation constant (Kd) was 174 ± 20.2 µM.

On to `CC(=O)CC(=O)SCCNC(=O)CCNC(=O)[C@H](O)C(C)(C)COP(=O)(O)OP(=O)(O)OC[C@H]1O[C@@H](n2cnc3c(N)ncnc32)[C@H](O)[C@@H]1OP(=O)(O)O` [Acetoacetyl-CoA, acetoacetyl-CoA], for which, in test [2], the n worked out at 0.5 ± 0.1, the “∆G” value is -5.469 ± 2.477 kcal/mol, the “∆H” value is -6.149 ± 2.477 kcal/mol and the “∆S” value is recorded as -2.28 cal mol-1 K-1. In test [2], the Kd worked out at 98 µM.

For `O=C(O)[C@H]1OC(O)[C@H](O)[C@@H](O)[C@@H]1O` (stereo partly drawn) [GlcA], in test [1] (ITC), the “∆G” value is recorded as “NBD”, the “∆H” value is on record as “NBD”, the “∆S” value was “NBD” and the Kd result is “NBD”.

As for `CCC(=O)SCCNC(=O)CCNC(=O)[C@H](O)C(C)(C)COP(=O)(O)OP(=O)(O)OC[C@H]1O[C@@H](n2cnc3c(N)ncnc32)[C@H](O)[C@@H]1OP(=O)(O)O` [Propionyl-CoA, propionyl-CoA], in test [2], the n was found to be 0.5 ± 0.0, the “∆G” value is -6.081 ± 0.3918 kcal/mol, the “∆H” value was -7.351 ± 0.3918 kcal/mol and the “∆S” value was -4.26 cal mol-1 K-1. In test [2], this molecule returned a Kd of 35 µM.

Consider `O=C[C@H](O)[C@@H](O)[C@@H](O)[C@H](O)CO` [D-Galactose], for which, in test [1] (ITC), the “∆G” value is “NBD”, the “∆H” value is recorded as “NBD”, the “∆S” value is recorded as “NBD” and the Kd result is “NBD”.

Regarding `Nc1ncnc2c1ncn2[C@@H]1O[C@H](COP(=O)(O)OP(=O)(O)OP(=O)(O)O)[C@@H](O)[C@H]1O` [ATP], in test [1] (ITC), the “∆G” value was “NBD”; the “∆H” value is “NBD”; the “∆S” value is listed as “NBD”; the dissociation constant (Kd) entry was “nor AMP, ADP, ATP, GMP, GDP, or GTP shows detectable binding affinity and NBD”.

`OC[C@H]1OC(O)[C@@H](O)[C@@H](O)[C@@H]1O` (stereo partly drawn) [D-Mannose]: in test [1] (ITC), the “∆G” value is listed as “NBD”, the “∆H” value is recorded as “NBD”, the “∆S” value was “NBD” and the Kd result was “NBD”.

As to `CC(C)(COP(=O)(O)OP(=O)(O)OC[C@H]1O[C@@H](n2cnc3c(N)ncnc32)[C@H](O)[C@@H]1OP(=O)(O)O)[C@@H](O)C(=O)NCCC(=O)NCCS` [CoA], in test [2], the n came to 0.6 ± 0.0, the “∆G” value is -5.478 ± 1.342 kcal/mol, the “∆H” value was -7.350 ± 1.342 kcal/mol and the “∆S” value is given as -6.28 cal mol-1 K-1. The molecule further showed a Kd in test [2] of 96.1 µM.

Take `Nc1nc2c(ncn2[C@@H]2O[C@H](COP(=O)(O)OP(=O)(O)OP(=O)(O)O)[C@@H](O)[C@H]2O)c(=O)[nH]1` [GTP]: in test [1] (ITC), the “∆G” value is reported as “NBD”; the “∆H” value was “NBD”; the “∆S” value is recorded as “NBD”; the Kd entry was “nor AMP, ADP, ATP, GMP, GDP, or GTP shows detectable binding affinity and NBD”.

The molecule `O=c1ccn([C@@H]2O[C@H](COP(=O)(O)OP(=O)(O)O)[C@@H](O)[C@H]2O)c(=O)[nH]1` [UDP 3] registered a n in test [1] of 1.0 ± 0.0. Besides, in test [1] (ITC), the “∆G” value was -6.128 ± 0.5523 kcal/mol, the “∆H” value is -4.130 ± 0.5523 kcal/mol and the “∆S” value is given as 6.70 cal mol^−1 K^−1. Further, the Kd in test [1] (ITC, read-out: Kd) was found to be 32.2 ± 6.8 µM. Further, the “binding affinity versus KasQ relative to UMP, UTP and TTP” value in test [1] (ITC, higher than that of the others) was 2–5 fold.

On to `Cc1cn([C@H]2C[C@H](O)[C@@H](COP(=O)(O)OP(=O)(O)O[C@H]3O[C@H](CO)[C@@H](O)[C@H](O)[C@H]3O)O2)c(=O)[nH]c1=O` [TDP-Glc], for which the n in test [1] is 0.3 ± 0.0. Besides, in test [1] (ITC), the “∆G” value is -6.273 ± 0.2773 kcal/mol, the “∆H” value is -4.568 ± 0.2773 kcal/mol and the “∆S” value is 5.72 cal mol^−1 K^−1. In test [1] (ITC, read-out: Kd), the equilibrium dissociation constant (Kd) came out at 25.1 ± 0.2 µM.

With `Nc1ncnc2c1ncn2[C@@H]1O[C@H](COP(=O)(O)O)[C@@H](O)[C@H]1O` [AMP], in test [1] (ITC), the “∆G” value was “NBD”; the “∆H” value is on record as “NBD”; the “∆S” value was “NBD”; the Kd result is “nor AMP, ADP, ATP, GMP, GDP, or GTP shows detectable binding affinity and NBD”.

As for `CC(=O)NC1=CO[C@H](CO)[C@@H](O)[C@@H]1O` [AAG 2, 2-acetamidoglucal], in test [1] (ITC), the “∆G” value is recorded as “NBD”, the “∆H” value is on record as “NBD”, the “∆S” value is “NBD” and the Kd entry was “NBD”. In test [1] (ITC, listed as AAG), the Kd result is given as “no binding affinity”.

In the case of `CC(C)CC(=O)SCCNC(=O)CCNC(=O)[C@H](O)C(C)(C)COP(=O)(O)OP(=O)(O)OC[C@H]1O[C@@H](n2cnc3c(N)ncnc32)[C@H](O)[C@@H]1OP(=O)(O)O` [Isovaleryl-CoA, isovaleryl-CoA], in test [2], the n turned out to be 1.0 ± 0.7, the “∆G” value was -5.048 ± 3.166 kcal/mol, the “∆H” value is -3.116 ± 3.166 kcal/mol and the “∆S” value turned out to be 6.48 cal mol-1 K-1. Binding in test [2] was put at a Kd of 199 µM.

As for `Nc1nc2c(ncn2[C@@H]2O[C@H](COP(=O)(O)O)[C@@H](O)[C@H]2O)c(=O)[nH]1` [GMP], in test [1] (ITC), the “∆G” value is “NBD”; the “∆H” value is “NBD”; the “∆S” value is recorded as “NBD”; the Kd result was “nor AMP, ADP, ATP, GMP, GDP, or GTP shows detectable binding affinity and NBD”.

In the case of `N[C@H]1C(O)O[C@H](CO)[C@@H](O)[C@@H]1O` (stereo partly drawn) [GlcNH2], in test [1] (ITC), the “∆G” value was “NBD”, the “∆H” value is reported as “NBD”, the “∆S” value is on record as “NBD” and the Kd result is “NBD”.

Consider `OC[C@H]1OC(O)[C@H](O)[C@@H](O)[C@@H]1O` (stereo partly drawn) [D-Glucose], for which, in test [1] (ITC), the “∆G” value is “NBD”, the “∆H” value was “NBD”, the “∆S” value was “NBD” and the Kd entry is on record as “NBD”.

Take `CC(=O)N[C@H]1C(O)O[C@H](CO)[C@@H](O)[C@@H]1O` (stereo partly drawn) [GlcNAc]: in test [1] (ITC), the “∆G” value was “NBD”, the “∆H” value is “NBD”, the “∆S” value is reported as “NBD” and the Kd result is on record as “NBD”.

In test [1], `CC(=O)N[C@H]1[C@@H](OP(=O)(O)OP(=O)(O)OC[C@H]2O[C@@H](n3ccc(=O)[nH]c3=O)[C@H](O)[C@@H]2O)O[C@H](CO)[C@H](O)[C@@H]1O` [UDP-GalNAc] gave a n of 1.8 ± 0.4. Also, in test [1] (ITC), the “∆G” value was -4.742 ± 1.700 kcal/mol, the “∆H” value is -3.418 ± 1.700 kcal/mol and the “∆S” value came to 4.44 cal mol^−1 K^−1.

Consider `Nc1ncnc2c1ncn2[C@@H]1O[C@H](COP(=O)(O)OP(=O)(O)O)[C@@H](O)[C@H]1O` [ADP], for which, in test [1] (ITC), the “∆G” value is listed as “NBD”; the “∆H” value is “NBD”; the “∆S” value is “NBD”; the Kd result was “nor AMP, ADP, ATP, GMP, GDP, or GTP shows detectable binding affinity and NBD”.

Turning to `CC(=O)N[C@H]1C(O)O[C@H](CO)[C@H](O)[C@@H]1O` (stereo partly drawn) [GalNAc], in test [1] (ITC), the “∆G” value was “NBD”, the “∆H” value is on record as “NBD”, the “∆S” value is “NBD” and the Kd entry was “NBD”.

With `Nc1nc2c(ncn2[C@@H]2O[C@H](COP(=O)(O)OP(=O)(O)OC3O[C@H](CO)[C@@H](O)[C@H](O)[C@H]3O)[C@@H](O)[C@H]2O)c(=O)[nH]1` (stereo partly drawn) [GDP-Glc], in test [1] (ITC), the “∆G” value is given as “NBD”, the “∆H” value was “NBD”, the “∆S” value is given as “NBD” and the Kd entry was “NBD”.

`CC(=O)SCCNC(=O)CCNC(=O)[C@H](O)C(C)(C)COP(=O)(O)OP(=O)(O)OC[C@H]1O[C@@H](n2cnc3c(N)ncnc32)[C@H](O)[C@@H]1OP(=O)(O)O` [AcCoA]: in test [2], the n was determined as 1.3 ± 0.4, the “∆G” value was -5.240 ± 8.196 kcal/mol, the “∆H” value is -14.19 ± 8.196 kcal/mol and the “∆S” value is recorded as -30.02 cal mol-1 K-1. This molecule also had a Kd in test [2] of 161 µM.

For the molecule `O=c1ccn([C@@H]2O[C@H](COP(=O)(O)O)[C@@H](O)[C@H]2O)c(=O)[nH]1` [UMP], the n in test [1] was 1.0 ± 0.0. For the same molecule, in test [1] (ITC), the “∆G” value was -13.19 ± 1.245 kcal/mol and the “∆H” value is -9.254 ± 1.245 kcal/mol. In addition, in test [1] (ITC, read-out: Kd), the equilibrium dissociation constant (Kd) is 124 ± 70.9 µM.
